The values that follow come from US20220050096A1, “ANALYTE-SENSITIVE PROBES AND CONTACT LENS FOR DIAGNOSIS OF OCULAR PATHOLOGIES” (University Of Maryland, Baltimore, priority 2020, published 2022).

A short description of data set [1]: Intensity decay analysis of 1,8-ANS in various solvents and contact lenses. The data set is classed as physicochemical. How it is done:
(§1) Fluorescence Spectroscopic Measurements. Fluorescence intensities and intensity decays were measured using a Varian™ Eclipse 4 spectrofluorometer and a FluoTime300 instrument from PicoQuant™ (Berlin, Germany) and analyzed with the EasyTau™ software. The excitation source was a 473 nm laser diode with a repetition rate of 40 MHZ and a pulse width less than 100 ps. In other embodiments, the excitation source for SG-PL was at 495 nm from a Solea™ supercontinuum laser (PicoQuant™, Germany) and a 375 nm laser diode (PDL 375, PicoQuant™), a repetition rate of 40 MHz, and a pulse width less than 100 ps. Some intensity and lifetime measurements for SG-PL (as indicated) were performed using Alba V confocal fluorescence lifetime microscopy, FLIM (ISS, Urbana, Ill.), with excitation source of a 473 nm laser diode with a repetition rate of 40 MHz and a pulse width near 250 ps.
(§2) Intensity decays were measured at the emission maximum with the band of 10 to 20 nm, analyzed in terms of the multi-exponential model:
(§3) I(t)=Σαi exp(−t/ti) (equation 1)
(§4) where Σαi=1.0 and Σfi=1.0. The term fi=αi τi is proportional to the fractional contribution of each component to the total intensity decay. The term τi/Σαi τi is the fractional contribution to the steady state emission. Here, we use the amplitude-weighted lifetime given by
In polar solvents like water, the emission of many fluorophores is shifted to longer wavelengths. In addition, the intensities can be much lower and the lifetimes much shorter. […] Table 20, below. […]

For data set [2] the following is noted: cited from earlier work; for Lifetime (ns), Ca bound form / Q, Ca bound form: bound form (in parentheses).
The conditions of data set [3]: cited from earlier work.
Data set [4] can be described thus: Intensity decay of Prodan in various solvents and contact lenses. The data set is classed as physicochemical. The method, then: as §1, §2, §3, §4
The observed spectral properties of 1,8-ANS in lens are consistent with 1,8-ANS properties noticed in a non-polar environment. The probe 6-propionyl-2-dimethylaminonaphthalene (Prodan™), which is also highly sensitive to local polarity, also was used. […] In MyDay™ lenses the emission maximum is at a shorter wavelength than that in acetonitrile.

For data set [5] the following is noted: cited from earlier work. The source holds these as a separate data set.
[6] abbreviates: cation-bound form (in parentheses).

Turning to `O=S(=O)(O)c1cccc2cccc(Nc3ccccc3)c12` [1,8-ANS, 1-anilino-8-naphthalene sulfonic acid], in data set [1] (1-hexanol), the f1 was found to be 0.01, the f2 worked out at 0.99, the α1 is listed as 0.08 and the α2 stood at 0.92. In data set [1] (1-hexanol), this molecule had a τ1 of 1.77 ns, a τ2 of 12.02 ns, a τf of 11.88 ns and a τα of 11.18 ns. Moreover, in data set [1] (25/75 MeOH/H2O), the f1 is listed as 0.98, the f2 is given as 0.02, the α1 was 0.996 and the α2 is recorded as 0.004. For the same molecule, in data set [1] (25/75 MeOH/H2O), the τ1 turned out to be 0.52 ns, the τ2 was 2.36 ns, the τf was determined as 0.54 ns and the τα was 0.52 ns. Also, in data set [1] (50/50 MeOH/H2O), the f1 is listed as 0.85, the f2 was 0.15, the α1 was 0.925 and the α2 is 0.075. In data set [1] (50/50 MeOH/H2O), this molecule came in with a τ1 of 1.09 ns, a τ2 of 2.33 ns, a τf of 1.27 ns and a τα of 1.19 ns. In data set [1] (Acetonitrile), this molecule gave a f1 of 1.0, a α1 of 1.0, a τ1 of 7.04 ns and a τf of 7.04 ns. Moreover, the τα in data set [1] (Acetonitrile) is reported as 7.04 ns. In data set [1] (Biofinity ™ lens), this molecule showed a f1 of 0.05, a f2 of 0.95, a α1 of 0.36 and a α2 of 0.64. In data set [1] (Biofinity ™ lens), this molecule showed a τ1 of 0.40 ns, a τ2 of 11.00 ns, a τf of 11.91 ns and a τα of 8.76 ns. Moreover, in data set [1] (EtOH), the f1 was 0.02, the f2 amounted to 0.98, the α1 amounted to 0.05 and the α2 is recorded as 0.95. Further, in data set [1] (EtOH), the τ1 stood at 3.13 ns, the τ2 was 8.83 ns, the τf was found to be 8.74 ns and the τα amounted to 8.57 ns. Moreover, in data set [1] (MyDay ™ lens), the f1 stood at 0.20, the f2 stood at 0.80, the α1 was 0.421 and the α2 amounted to 0.578. In data set [1] (MyDay ™ lens), this molecule came in with a τ1 of 4.01 ns, a τ2 of 12.79 ns, a τf of 11.97 ns and a τα of 9.70 ns.

As for `Cc1ccc(N(CC(=O)O)CC(=O)O)c(OCCOc2cc3cc(-c4ncc(C(=O)O)o4)oc3cc2N(CC(=O)O)CC(=O)O)c1` [F ? -2], in data set [2], the “Lifetime (ns), Ca bound form” value is recorded as 1.68 ns; the “Q, Ca bound form” value was 0.49; the “Lifetime (ns), Ca free form” value was 1.09 ns; the “Q, Ca free form” value is reported as 0.23.

On to `O=S(=O)(O)c1cc(O)c2ccc3c(S(=O)(=O)O)cc(S(=O)(=O)O)c4ccc1c2c34` [HPTS, 8-hydroxypyrene-1,3,6-trisulfonate], for which the pKA in data set [3] was 7.3.

For `Cc1ccc(N(CC(=O)O)CC(=O)O)c(OCCOc2cc(-c3cc4ccc(C(=O)O)cc4[nH]3)ccc2N(CC(=O)O)CC(=O)O)c1` [Indo-1], in data set [2], the “Lifetime (ns), Ca bound form” value was 1.66 ns; the “Q, Ca bound form” value is reported as 0.50; the “Lifetime (ns), Ca free form” value was 1.40 ns; the “Q, Ca free form” value is reported as 0.38.

Turning to `O=C(O)c1ccccc1-c1c2cc(F)c(=O)cc-2oc2cc(O)c(F)cc12` [Oregon-Green], in data set [3] (A form (value in parentheses)), the “Lifetime (ns) τA” value is 2.47 ns and the QA was 0.22. Moreover, in data set [3] (B form), the “Lifetime (ns) τB” value is listed as 4.37 ns and the QB was 0.65. Further, the pKA in data set [3] was 1.8.

On to `Cc1ccc(N(CC(=O)O)CC(=O)O)c(OCCOc2cc(-c3c4cc(Cl)c(=O)cc-4oc4cc(O)c(Cl)cc34)ccc2N(CC(=O)O)CC(=O)O)c1` [Pluo-3], for which, in data set [2], the “Lifetime (ns), Ca bound form” value is reported as 1.28 ns and the “Lifetime (ns), Ca free form” value is listed as 0.04 ns.

In data set [4] (in 1-hexanol), `CCC(=O)c1ccc2cc(N(C)C)ccc2c1` [Prodan ™] had a f1 of 1.0, a α1 of 1.0, a τ1 of 3.40 ns and a τf of 3.40 ns. This molecule also yielded a τα in data set [4] (in 1-hexanol) of 3.40 ns. In data set [4] (in Acetonitrile), this molecule returned a f1 of 1.0, a α1 of 1.0, a τ1 of 3.38 ns and a τf of 3.38 ns. In data set [4] (in Acetonitrile), this molecule gave a τα of 3.38 ns. In data set [4] (in Biofinity contact lens), this molecule came in with a f1 of 1.0, a α1 of 1.0, a τ1 of 3.98 ns and a τf of 3.98 ns. The τα in data set [4] (in Biofinity contact lens) worked out at 3.98 ns. For the same molecule, in data set [4] (in EtOH), the f1 is 1.0, the α1 worked out at 1.0, the τ1 is 3.28 ns and the τf amounted to 3.28 ns. In addition, in data set [4] (in EtOH), the τα was 3.28 ns. In data set [4] (in MyDay contact lens, 2 hr), this molecule had a f1 of 0.82, a f2 of 0.18, a α1 of 0.94 and a α2 of 0.07. In addition, in data set [4] (in MyDay contact lens, 2 hr), the τ1 came out at 3.81 ns, the τ2 is 12.15 ns, the τf was 5.34 ns and the τα turned out to be 4.36 ns. In data set [4] (in MyDay contact lens, 1 day), this molecule yielded a f1 of 0.67, a f2 of 0.33, a α1 of 0.87 and a α2 of 0.13. Besides, in data set [4] (in MyDay contact lens, 1 day), the τ1 was 4.48 ns, the τ2 amounted to 14.41 ns, the τf was determined as 7.76 ns and the τα is 5.80 ns. In data set [4] (in Water), this molecule displayed a f1 of 0.494, a f2 of 0.51, a α1 of 0.740 and a α2 of 0.260. In data set [4] (in Water), this molecule gave a τ1 of 0.69 ns, a τ2 of 2.02 ns, a τf of 1.36 ns and a τα of 1.04 ns.

With `COc1cc(N(CC(=O)O)CC(=O)O)c2nc(COc3cc(C)ccc3N(CC(=O)O)CC(=O)O)ccc2c1` [Quin-2], in data set [2], the “Lifetime (ns), Ca bound form” value is reported as 11.6 ns; the “Q, Ca bound form” value was 0.14; the “Lifetime (ns), Ca free form” value is reported as 1.35 ns; the “Q, Ca free form” value is on record as 0.03.

Take `O=c1ccc2nc3ccc(O)cc3oc-2c1` [Resorufin]: the “Lifetime (ns) τA” value in data set [3] (A form (value in parentheses)) is given as 0.45 ns. Moreover, the “Lifetime (ns) τB” value in data set [3] (B form) was 2.92 ns. Further, in data set [3], the pKA was about 5.7.

`COc1cc2cc(-c3ccc(C(=O)O)cc3C(=O)O)oc2cc1N1CCOCCOCCN(c2cc3oc(-c4ccc(C(=O)O)cc4C(=O)O)cc3cc2OC)CCOCC1` [SBF ?]: in data set [5] (setting [6]), the “Lifetime (ns), cation-bound form” value is on record as 0.47 ns and the “Q, cation-bound form” value is 0.087. For the same molecule, in data set [5] (free form), the “Lifetime (ns), free form” value is recorded as 0.27 ns and the “Q, free form” value is 0.645. The Kd in data set [5] (read-out: K (mM), binding constant) is 3.8 mM.

Turning to `CCN(CC)Cc1ccnc(-c2cc(CN(CC)CC)ccn2)c1.[Ru+2].c1ccc(-c2ccccn2)nc1.c1ccc(-c2ccccn2)nc1` [[Ru(deabpy)(bpy)2]^2+], the “Lifetime (ns) τA” value in data set [3] (A form (value in parentheses)) is 235 ns. For the same molecule, in data set [3] (B form), the “Lifetime (ns) τB” value was 380 ns. Further, in data set [3], the pKA is 7.5.
